From patent publication US20210251953A1, “COMPOSITIONS FOR TREATING AND/OR […]-A[…]” (U[…] DE OLAVIDE, priority 2018, published 2021)
Read-outs that look alike come from different tables or passages of the source.

Key:
[1] = tested on: GMC101 strain of C. elegans; assay: Temperature-dependent paralysis assay in C. elegans Alzheimer's disease model; type: in vivo; details: for number of paralyzed worms: 1 μg/ml, counted after 18-hour incubation at 25° C.
Protocol: Paralysis assay: Worms were grown at a non-restrictive temperature of 16° C. until they reached the L4-young adult stage. The temperature was then shifted to 25° C. The number of paralyzed and non-paralyzed animals were counted after an 18-hour incubation at the restrictive temperature of 25° C.
Statistical analysis: The data were analyzed using a 2-tailed chi-square test in contingency table. Statistical analysis was performed using the GraphPad Prism software (version 7.00).

R6/1 mice = assay: Open-field motor activity test in mouse model of Huntington's disease; type: in vivo; details: oral STX64 0.005 mg/ml in drinking water from 1 month of age for 1 month, tested at 2 months
Protocol: (§1) Mice strains and conditions: The R6/1 mice (Yi Li et al., 2005. NeuroRX. 2(3): 447-464; Mangiarini et al., 1996. Cell. 87(3):493-506) used in this study were purchased from an authorized provider and they were habituated to standard animals housing conditions for 2-3 weeks (a 12 h light/dark cycle, temperature and humidity). Motor activity studies were performed with 2-month-old R6/1 mice. All experiments were performed in accordance with European Union guidelines (2010/63/EU) and with Spanish regulations for the use of laboratory animals in chronic experiments (RD 53/2013 on the care of experimental animals: BOE Aug. 2, 2013), and the approval of the University Pablo de Olavide animal care committees was obtained prior to performing this study.
Mice Oral STX administration: STX64 was dissolved in drinking water at 0.005 mg/ml. 1-month-old mice were exposed to STX solution for 1 month and the water intake was registered every day during the treatment. The estimated daily dose of STX64 was between 1-2 mg/Kg of body weight.
Motor activity test: Locomotor activity was tested in a non-stressful open-field (56×40×40 cm) for 15 minutes. The distance traveled by the mice was estimated with Smart video-tracking software (Panlab).

α-synuclein aggregates = assay: Counting of fluorescent α-synuclein aggregates in C. elegans Parkinson's disease model; type: in vivo; details: NL5901 nematodes expressing α-synuclein fused to YFP; STX64 vs DMSO
Protocol: Further, we tested the effect of the sul-2 deletion and the administration of STX64 on the aggregation of α-synuclein. To quantify the aggregates, animals were transferred to pads comprising 2% agarose and immobilized using 25 mM levamisole. The number of α-synuclein aggregates was determined by counting fluorescent aggregates at 40× magnification, from first bulb pharyngeal to second bulb.

[2] = tested on: wild type worms and sul-2 deletion mutants; details: cited from earlier work
β-amyloid = β-amyloid immunohistochemistry and histological analysis in APP-PS1 mice; type: in vivo
Protocol: as §1, with “male Swiss (CD1) and APP-PS1 (Blanchard” for “R6/1 mice (Yi Li”, “2003. Exp Neural. 184(1):247-63) mice” for “2005. NeuroRX. 2(3): 447-464; Mangiarini et al., 1996. Cell. 87(3):493-506)”, “provider (University of Seville, Spain)” for “provider”, “Behavioral” for “Motor activity”, “8 week-old Swiss mice, and >15 month-old APP-PS1 mice in C57Black background. For histological studies, male APP-PS1 mice from 2 to >15 months of age were used.” for “2-month-old R6/1 mice.”
(§2) Mice Oral STX administration: STX64 was dissolved in drinking water at 0.005 mg/ml. Mice were exposed to STX solution during 3-4 weeks and the water intake was registered every day during the treatment. The estimated daily dose of STX64 was between 1-2 mg/Kg of body weight.
Immunohistochemistry and histological analysis: For immunohistochemistry, an antibody against β-amyloid (1:3000, Sigma-Aldrich) was used. Antibody staining was visualized with H2O2 and diaminobenzidine, and enhanced with nickel. To minimize variability, at least 5 sections per mice were analyzed under a bright-field DMRB RFY HC microscope (Leica). In each section, the percentage area occupied by β-amyloid, the density and the average size of β-amyloid accumulations were quantified using Image-J software (downloaded as a free software package from the public domain: http://rsb.info.nih.gov/ij/download.html).

[3] = tested on: C. elegans Parkinson's disease model strain NL5901; assay: Mobility (pitches per minute) in C. elegans Parkinson's disease model; type: in vivo; details: STX64 1 μg/ml in DMSO; nematodes overexpressing human α-synuclein in muscle cells, monitored every two days; vs DMSO
Protocol: C. elegans models of Parkinson's disease: We tested if sul-2 mutations or STX64 (Sigma cat. No. 51950) treatment at 1 μg/ml concentration dissolved in DMSO improved the symptoms caused by the overexpression of human α-synuclein in muscle cells (see the following references for information on the model used: van Ham et al., 2008. PLoS Genet. 4(3):e1000027; Gidalevitz et al., 2009. PLoS Genet. 5(3):e1000399; van Ham et al., 2010. Cell. 142(4):601-12). In particular, nematodes were synchronized at 20° C. and monitored every two days. On each day of monitoring, a nematode was placed in a drop of M9 buffer, allowing 30 seconds accommodation and later counting number of pitches in one minute, assuming that a pitch occurs when the head of the nematode crosses the axial axis. N=20 for each day assayed and condition (this protocol was adapted from Van Ham et al., 2010. Cell. 142: 601-612).

[4] = tested on: 35 polyglutamine (polyQ) repeats fused to YFP, strain AM140; assay: Counting of polyQ aggregates in C. elegans Huntington's disease model; type: in vivo; details: STX64 1 μg/ml in DMSO; counted at day 5 of adulthood
Protocol: To quantify the aggregates, animals were transferred to pads comprising 2% agarose and immobilized using 25 mM levamisole. The number of polyQ aggregates was determined by counting fluorescent aggregates at 10× magnification, from first bulb pharyngeal to second bulb.

[5] = tested on: wild type mice injected with β-amyloid oligomers in the hippocampus; assay: Step-through passive avoidance test after intrahippocampal β-amyloid oligomers (acute AD mouse model); type: in vivo
Protocol: as §1, with “male Swiss (CD1) and APP-PS1 (Blanchard” for “R6/1 mice (Yi Li”, “2003. Exp Neural. 184(1):247-63) mice” for “2005. NeuroRX. 2(3): 447-464; Mangiarini et al., 1996. Cell. 87(3):493-506)”, “provider (University of Seville, Spain)” for “provider”, “Behavioral” for “Motor activity”, “8 week-old Swiss mice, and >15 month-old APP-PS1 mice in C57Black background. For histological studies, male APP-PS1 mice from 2 to >15 months of age were used.” for “2-month-old R6/1 mice.”
Mice local drug infusion: Mice were anesthetized with 4% chloral hydrate ([…] of body weight, i.p.) and when fully anesthetized, they were situated in a stereotactic frame. In order to injure the hippocampus, 0.5 μl of 5 μM solution of β-amyloid oligomers were injected bilaterally into the dorsal hippocampus of the mice at the following stereotactic coordinates: AP=−2.2 mm, ML=±1.5 mm, V=−1.5 mm from the Bregma. The mice were then allowed to recover for at least 15 days. […]

APP-PS1 mice = assay: Step-through passive avoidance test in APP-PS1 mice (chronic AD mouse model); type: in vivo; details: APP-PS1 mice older than 15 months, oral STX64 during 3-4 weeks; vs vehicle and wild type mice
Protocol: as §1, with “male Swiss (CD1) and APP-PS1 (Blanchard” for “R6/1 mice (Yi Li”, “2003. Exp Neural. 184(1):247-63) mice” for “2005. NeuroRX. 2(3): 447-464; Mangiarini et al., 1996. Cell. 87(3):493-506)”, “provider (University of Seville, Spain)” for “provider”, “Behavioral” for “Motor activity”, “8 week-old Swiss mice, and >15 month-old APP-PS1 mice in C57Black background. For histological studies, male APP-PS1 mice from 2 to >15 months of age were used.” for “2-month-old R6/1 mice.”
as §2
Step-through passive avoidance (PA) test: Mice have an innate preference for dark and enclosed environments. […]

[6] = tested on: C. elegans Alzheimer's disease model strain CL2006; assay: Paralysis in C. elegans Alzheimer's disease model expressing β-amyloid in muscle cells; type: in vivo; details: nematodes expressing β-amyloid in muscle cells, monitored from 1st day of adulthood
Protocol: C. elegans model of Alzheimer's disease: We also tested an Alzheimer's disease model expressing β-amyloid protein in muscle cells which causes paralysis in the nematode as it ages. Nematodes were synchronized at 20° C. Paralysis was monitored from 1st day of adulthood, by observing whether there is a lack of movement after the nematode was stimulated with a platinum pick.

| Compound | number of paralyzed worms [1] | motor activity (distance traveled in open-field, 15 minutes) (R6/1 mice) | effect on paralysis, comparison of sul-2 absence, STX64 and EMATE ([1]; GMC101 strain) | number of bigger α-synuclein aggregates (≥3 μm) (α-synuclein aggregates) | number of smaller α-synuclein aggregates (<1 μm) (α-synuclein aggregates) | longevity ([2]; sul-2 deletion mutants) | longevity ([2]; wild type worms) | β-amyloid immunoreactive area (β-amyloid; >15-month-old APP-PS1 mice, 3-4 weeks oral STX64 (0.005 mg/ml in drink water), frontal cortex and hippocampus, vs vehicle) | β-amyloid plaque density (β-amyloid; >15-month-old APP-PS1 mice, 3-4 weeks oral STX64, frontal cortex and hippocampus, vs vehicle) | average β-amyloid plaque size (β-amyloid; >15-month-old APP-PS1 mice, 3-4 weeks oral STX64, frontal cortex, vs vehicle) | average β-amyloid plaque size (β-amyloid; >15-month-old APP-PS1 mice, 3-4 weeks oral STX64, hippocampus, vs vehicle) | β-amyloid deposition compared with the time-course in untreated APP-PS1 mice (β-amyloid; >15 month-old APP-PS1 mice, 3-4 weeks oral STX64, frontal cortex and hippocampus) | mobility (number of pitches in one minute) [3] | total number of polyQ aggregates [4] | cognitive deficiencies (escape latency, passive avoidance test) ([5]; local (intrahippocampal) STX64, 0.5 μl of 1 mg/ml, 20 minutes before β-amyloid oligomers) | cognitive deficiencies (escape latency, passive avoidance test) ([5]; systemic (oral) STX64, 0.005 mg/ml in drinking water) | cognitive deficiencies (passive avoidance test) (APP-PS1 mice) | paralysis with age [6] |
| --- | --- | --- | --- | --- | --- | --- | --- | --- | --- | --- | --- | --- | --- | --- | --- | --- | --- | --- |
| C[C@]12CC[C@@H]3c4ccc(OS(N)(=O)=O)cc4CC[C@H]3[C@@H]1CCC2=O [EMATE, estrone sulfamate] | reduced the number of paralyzed worms |  |  |  |  |  |  |  |  |  |  |  |  |  |  |  |  |  |
| NS(=O)(=O)Oc1ccc2c3c(c(=O)oc2c1)CCCCC3 [STX64] | reduced the number of paralyzed worms | decrease in motor activity can be avoided | appeared to have the greatest effect | increasing the number of bigger aggregates | decreased the number of smaller aggregates | did not further increase the longevity | the same longevity effects as in the sul-2 mutants | significant reduction | significant reduction | significant reduction | a significant reduction, except for plaque size in hippocampus | reduced β-amyloid deposition in APP-PS1 mice older than 15 months to that observed in APP-PS1 mice of 10-12 months of age | significantly improved mobility | reduced the total number of aggregates | reverted cognitive deficiencies | reverted cognitive deficiencies | completely reverted cognitive deficiencies | delayed paralysis |
